Assay results: ChEMBL document CHEMBL1139716, “Naphtho[2,3-b][1,4]-thiazine-5,10-diones and 3-substituted-1,4-dioxo-1,4-dihydronaphthalen-2-yl-thioalkanoate derivatives: synthesis and biological evaluation as potential antibacterial and antifungal agents” (Bioorg Med Chem Lett, 2006)
≈ marks a conversion by molar mass, not a printed value.

Legend:
Cryptococcus neoformans = assay: Antifungal activity against Cryptococcus neoformans by broth microdilution technique; assay type: functional, organism-based
Klebsiella pneumoniae = assay: Antibacterial activity against Klebsiella pneumoniae by broth microdilution technique; assay type: functional, organism-based; conditions: for IC50: read-out: IC50
Pseudomonas aeruginosa = assay: Antibacterial activity against Pseudomonas aeruginosa by broth microdilution technique; assay type: functional, organism-based; conditions: for IC50: read-out: IC50
Enterococcus faecalis = assay: Antibacterial activity against Streptococcus faecalis by broth microdilution technique; assay type: functional, organism-based; conditions: for IC50: read-out: IC50
Escherichia coli = assay: Antibacterial activity against Escherichia coli by broth microdilution technique; assay type: functional, organism-based; conditions: for IC50: read-out: IC50
Staphylococcus aureus = assay: Antibacterial activity against Staphylococcus aureus by broth microdilution technique; assay type: functional, organism-based; conditions: for IC50: read-out: IC50
Candida albicans = assay: Antifungal activity against Candida albicans by broth microdilution technique; assay type: functional, organism-based
Trichophyton benhamiae = assay: Antifungal activity against Trichophyton mentagrophytes by broth microdilution technique; assay type: functional, organism-based, Arthroderma benhamiae
Candida parapsilosis = assay: Antifungal activity against Candida parapsilosis ATCC 22019 by broth microdilution technique; assay type: functional, organism-based; conditions: Lodderomyces parapsilosis
Sporothrix schenckii = assay: Antifungal activity against Sporothrix schenckii by broth microdilution technique; assay type: functional, organism-based
Aspergillus fumigatus = assay: Antifungal activity against Aspergillus fumigatus by broth microdilution technique; assay type: functional, organism-based

CCOC(=O)CSC1=C(Cl)C(=O)c2ccccc2C1=O
IC50 (Cryptococcus neoformans): 10.9 µg/mL (≈ 35.2 µM)
MIC (Cryptococcus neoformans): 12.5 µg/mL (≈ 40.2 µM)
MIC (Klebsiella pneumoniae; Klebsiella pneumoniae): 50 µg/mL (≈ 161 µM)
IC50 (Klebsiella pneumoniae; Klebsiella pneumoniae): 33.2 µg/mL (≈ 107 µM)
MIC (Pseudomonas aeruginosa; Pseudomonas aeruginosa): 50 µg/mL (≈ 161 µM)
IC50 (Pseudomonas aeruginosa; Pseudomonas aeruginosa): 44.4 µg/mL (≈ 143 µM)
MIC (Enterococcus faecalis; Enterococcus faecalis): 12.5 µg/mL (≈ 40.2 µM)
IC50 (Enterococcus faecalis; Enterococcus faecalis): 9.24 µg/mL (≈ 29.7 µM)
MIC (Escherichia coli; Escherichia coli): 12.5 µg/mL (≈ 40.2 µM)
IC50 (Escherichia coli; Escherichia coli): 8.56 µg/mL (≈ 27.5 µM)
MIC (Staphylococcus aureus; Staphylococcus aureus): 12.5 µg/mL (≈ 40.2 µM)
IC50 (Staphylococcus aureus; Staphylococcus aureus): 6.98 µg/mL (≈ 22.5 µM)
IC50 (Candida albicans): > 50 µg/mL
MIC (Candida albicans): > 50 µg/mL
IC50 (Trichophyton benhamiae): > 50 µg/mL
MIC (Trichophyton benhamiae): > 50 µg/mL
IC50 (Candida parapsilosis): > 50 µg/mL
MIC (Candida parapsilosis): > 50 µg/mL
IC50 (Sporothrix schenckii): 18.7 µg/mL (≈ 60.3 µM)
MIC (Sporothrix schenckii): 25 µg/mL (≈ 80.4 µM)
IC50 (Aspergillus fumigatus): > 50 µg/mL
MIC (Aspergillus fumigatus): > 50 µg/mL

CCOC(=O)CSC1=C(NCc2ccccc2)C(=O)c2ccccc2C1=O
IC50 (Cryptococcus neoformans): > 50 µg/mL
MIC (Cryptococcus neoformans): > 50 µg/mL
MIC (Klebsiella pneumoniae; Klebsiella pneumoniae): 25 µg/mL (≈ 65.5 µM)
IC50 (Klebsiella pneumoniae; Klebsiella pneumoniae): 22.3 µg/mL (≈ 58.6 µM)
MIC (Pseudomonas aeruginosa; Pseudomonas aeruginosa): > 50 µg/mL
IC50 (Pseudomonas aeruginosa; Pseudomonas aeruginosa): > 50 µg/mL
MIC (Enterococcus faecalis; Enterococcus faecalis): > 50 µg/mL
IC50 (Enterococcus faecalis; Enterococcus faecalis): > 50 µg/mL
MIC (Escherichia coli; Escherichia coli): 12.5 µg/mL (≈ 32.8 µM)
IC50 (Escherichia coli; Escherichia coli): 9.2 µg/mL (≈ 24.1 µM)
MIC (Staphylococcus aureus; Staphylococcus aureus): 12.5 µg/mL (≈ 32.8 µM)
IC50 (Staphylococcus aureus; Staphylococcus aureus): 11.6 µg/mL (≈ 30.4 µM)
IC50 (Candida albicans): > 50 µg/mL
MIC (Candida albicans): > 50 µg/mL
IC50 (Trichophyton benhamiae): 4.5 µg/mL (≈ 11.8 µM)
MIC (Trichophyton benhamiae): 6.25 µg/mL (≈ 16.4 µM)
IC50 (Candida parapsilosis): > 50 µg/mL
MIC (Candida parapsilosis): > 50 µg/mL
IC50 (Sporothrix schenckii): > 50 µg/mL
MIC (Sporothrix schenckii): > 50 µg/mL
IC50 (Aspergillus fumigatus): > 50 µg/mL
MIC (Aspergillus fumigatus): > 50 µg/mL

OC(Cn1cncn1)(Cn1cncn1)c1ccc(F)cc1F [FLUCONAZOLE]
IC50 (Cryptococcus neoformans): 0.46 µg/mL (≈ 1.5 µM)
MIC (Cryptococcus neoformans): 1 µg/mL (≈ 3.27 µM)
MIC (Candida albicans): 0.5 µg/mL (≈ 1.63 µM)
IC50 (Trichophyton benhamiae): 0.63 µg/mL (≈ 2.06 µM)
MIC (Trichophyton benhamiae): 1 µg/mL (≈ 3.27 µM)
MIC (Candida parapsilosis): 1 µg/mL (≈ 3.27 µM)
IC50 (Sporothrix schenckii): 1.45 µg/mL (≈ 4.73 µM)
MIC (Sporothrix schenckii): 2 µg/mL (≈ 6.53 µM)
IC50 (Aspergillus fumigatus): 1.06 µg/mL (≈ 3.46 µM)
MIC (Aspergillus fumigatus): 2 µg/mL (≈ 6.53 µM)

C[C@@H]1[C@H](O)[C@@H](C)/C=C/C=C/C=C/C=C/C=C/C=C/C=C/[C@H](O[C@@H]2O[C@H](C)[C@@H](O)[C@H](N)[C@@H]2O)C[C@@H]2O[C@](O)(C[C@@H](O)C[C@@H](O)[C@H](O)CC[C@@H](O)C[C@@H](O)CC(=O)O[C@H]1C)C[C@H](O)[C@H]2C(=O)O [AMPHOTERICIN B]
IC50 (Cryptococcus neoformans): 0.04 µg/mL (≈ 0.0433 µM)
MIC (Cryptococcus neoformans): 0.06 µg/mL (≈ 0.0649 µM)
IC50 (Candida albicans): 0.09 µg/mL (≈ 0.0974 µM)
MIC (Candida albicans): 0.12 µg/mL (≈ 0.13 µM)
IC50 (Trichophyton benhamiae): 0.09 µg/mL (≈ 0.0974 µM)
MIC (Trichophyton benhamiae): 0.12 µg/mL (≈ 0.13 µM)
IC50 (Candida parapsilosis): 0.11 µg/mL (≈ 0.119 µM)
MIC (Candida parapsilosis): 0.12 µg/mL (≈ 0.13 µM)
IC50 (Sporothrix schenckii): 0.08 µg/mL (≈ 0.0866 µM)
MIC (Sporothrix schenckii): 0.12 µg/mL (≈ 0.13 µM)
IC50 (Aspergillus fumigatus): 0.38 µg/mL (≈ 0.411 µM)
MIC (Aspergillus fumigatus): 0.5 µg/mL (≈ 0.541 µM)

CCOC(=O)C(C)SC1=C(NC(C)(C)C)C(=O)c2ccccc2C1=O (centres undefined)
IC50 (Cryptococcus neoformans): 10.3 µg/mL (≈ 28.5 µM)
MIC (Cryptococcus neoformans): 12.5 µg/mL (≈ 34.6 µM)
MIC (Klebsiella pneumoniae; Klebsiella pneumoniae): 6.25 µg/mL (≈ 17.3 µM)
IC50 (Klebsiella pneumoniae; Klebsiella pneumoniae): 4.82 µg/mL (≈ 13.3 µM)
MIC (Pseudomonas aeruginosa; Pseudomonas aeruginosa): 6.25 µg/mL (≈ 17.3 µM)
IC50 (Pseudomonas aeruginosa; Pseudomonas aeruginosa): 5.32 µg/mL (≈ 14.7 µM)
MIC (Enterococcus faecalis; Enterococcus faecalis): 6.25 µg/mL (≈ 17.3 µM)
IC50 (Enterococcus faecalis; Enterococcus faecalis): 5.62 µg/mL (≈ 15.5 µM)
MIC (Escherichia coli; Escherichia coli): 6.25 µg/mL (≈ 17.3 µM)
IC50 (Escherichia coli; Escherichia coli): 4.38 µg/mL (≈ 12.1 µM)
MIC (Staphylococcus aureus; Staphylococcus aureus): 6.25 µg/mL (≈ 17.3 µM)
IC50 (Staphylococcus aureus; Staphylococcus aureus): 3.98 µg/mL (≈ 11 µM)
IC50 (Candida albicans): 38.3 µg/mL (≈ 106 µM)
MIC (Candida albicans): 50 µg/mL (≈ 138 µM)
IC50 (Trichophyton benhamiae): 2.8 µg/mL (≈ 7.75 µM)
MIC (Trichophyton benhamiae): 3.12 µg/mL (≈ 8.63 µM)
IC50 (Candida parapsilosis): 22.2 µg/mL (≈ 61.4 µM)
MIC (Candida parapsilosis): 25 µg/mL (≈ 69.2 µM)
IC50 (Sporothrix schenckii): 10.9 µg/mL (≈ 30.2 µM)
MIC (Sporothrix schenckii): 12.5 µg/mL (≈ 34.6 µM)
IC50 (Aspergillus fumigatus): 21.8 µg/mL (≈ 60.4 µM)
MIC (Aspergillus fumigatus): 25 µg/mL (≈ 69.2 µM)

CCOC(=O)C(C)SC1=C(Cl)C(=O)c2ccccc2C1=O (centres undefined)
IC50 (Cryptococcus neoformans): 11.5 µg/mL (≈ 35.3 µM)
MIC (Cryptococcus neoformans): 12.5 µg/mL (≈ 38.5 µM)
MIC (Klebsiella pneumoniae; Klebsiella pneumoniae): 50 µg/mL (≈ 154 µM)
IC50 (Klebsiella pneumoniae; Klebsiella pneumoniae): 28.3 µg/mL (≈ 87.3 µM)
MIC (Pseudomonas aeruginosa; Pseudomonas aeruginosa): 50 µg/mL (≈ 154 µM)
IC50 (Pseudomonas aeruginosa; Pseudomonas aeruginosa): 48.3 µg/mL (≈ 149 µM)
MIC (Enterococcus faecalis; Enterococcus faecalis): 12.5 µg/mL (≈ 38.5 µM)
IC50 (Enterococcus faecalis; Enterococcus faecalis): 9.52 µg/mL (≈ 29.3 µM)
MIC (Escherichia coli; Escherichia coli): 12.5 µg/mL (≈ 38.5 µM)
IC50 (Escherichia coli; Escherichia coli): 6.34 µg/mL (≈ 19.5 µM)
MIC (Staphylococcus aureus; Staphylococcus aureus): 12.5 µg/mL (≈ 38.5 µM)
IC50 (Staphylococcus aureus; Staphylococcus aureus): 7.95 µg/mL (≈ 24.5 µM)
IC50 (Candida albicans): > 50 µg/mL
MIC (Candida albicans): > 50 µg/mL
IC50 (Trichophyton benhamiae): > 50 µg/mL
MIC (Trichophyton benhamiae): > 50 µg/mL
IC50 (Candida parapsilosis): > 50 µg/mL
MIC (Candida parapsilosis): > 50 µg/mL
IC50 (Sporothrix schenckii): 22.7 µg/mL (≈ 69.8 µM)
MIC (Sporothrix schenckii): 25 µg/mL (≈ 77 µM)
IC50 (Aspergillus fumigatus): > 50 µg/mL
MIC (Aspergillus fumigatus): > 50 µg/mL

CCOC(=O)CSC1=C(NCC(C)C)C(=O)c2ccccc2C1=O
IC50 (Cryptococcus neoformans): > 50 µg/mL
MIC (Cryptococcus neoformans): > 50 µg/mL
MIC (Klebsiella pneumoniae; Klebsiella pneumoniae): 50 µg/mL (≈ 144 µM)
IC50 (Klebsiella pneumoniae; Klebsiella pneumoniae): 38.5 µg/mL (≈ 111 µM)
MIC (Pseudomonas aeruginosa; Pseudomonas aeruginosa): 50 µg/mL (≈ 144 µM)
IC50 (Pseudomonas aeruginosa; Pseudomonas aeruginosa): 42.5 µg/mL (≈ 122 µM)
MIC (Enterococcus faecalis; Enterococcus faecalis): 25 µg/mL (≈ 72 µM)
IC50 (Enterococcus faecalis; Enterococcus faecalis): 19.5 µg/mL (≈ 56.2 µM)
MIC (Escherichia coli; Escherichia coli): 50 µg/mL (≈ 144 µM)
IC50 (Escherichia coli; Escherichia coli): 39.3 µg/mL (≈ 113 µM)
MIC (Staphylococcus aureus; Staphylococcus aureus): 25 µg/mL (≈ 72 µM)
IC50 (Staphylococcus aureus; Staphylococcus aureus): 21.6 µg/mL (≈ 62.1 µM)
IC50 (Candida albicans): > 50 µg/mL
MIC (Candida albicans): > 50 µg/mL
IC50 (Trichophyton benhamiae): 9.8 µg/mL (≈ 28.2 µM)
MIC (Trichophyton benhamiae): 12.5 µg/mL (≈ 36 µM)
IC50 (Candida parapsilosis): > 50 µg/mL
MIC (Candida parapsilosis): > 50 µg/mL
IC50 (Sporothrix schenckii): 22.8 µg/mL (≈ 65.7 µM)
MIC (Sporothrix schenckii): 50 µg/mL (≈ 144 µM)
IC50 (Aspergillus fumigatus): > 50 µg/mL
MIC (Aspergillus fumigatus): > 50 µg/mL

GENTAMICIN
MIC (Klebsiella pneumoniae): 0.78 µg/mL
MIC (Pseudomonas aeruginosa): 25 µg/mL
MIC (Enterococcus faecalis): 0.78 µg/mL
MIC (Escherichia coli): 0.18 µg/mL
MIC (Staphylococcus aureus): 6.25 µg/mL

Cc1sc2c(=O)c3ccccc3c(=O)c=2n(C)c1O
IC50 (Cryptococcus neoformans): 1.54 µg/mL (≈ 5.63 µM)
MIC (Cryptococcus neoformans): 3.12 µg/mL (≈ 11.4 µM)
MIC (Klebsiella pneumoniae; Klebsiella pneumoniae): 3.12 µg/mL (≈ 11.4 µM)
IC50 (Klebsiella pneumoniae; Klebsiella pneumoniae): 1.98 µg/mL (≈ 7.24 µM)
MIC (Pseudomonas aeruginosa; Pseudomonas aeruginosa): 50 µg/mL (≈ 183 µM)
IC50 (Pseudomonas aeruginosa; Pseudomonas aeruginosa): 49.3 µg/mL (≈ 180 µM)
MIC (Enterococcus faecalis; Enterococcus faecalis): 3.12 µg/mL (≈ 11.4 µM)
IC50 (Enterococcus faecalis; Enterococcus faecalis): 2.58 µg/mL (≈ 9.44 µM)
MIC (Escherichia coli; Escherichia coli): 1.56 µg/mL (≈ 5.71 µM)
IC50 (Escherichia coli; Escherichia coli): 0.96 µg/mL (≈ 3.51 µM)
MIC (Staphylococcus aureus; Staphylococcus aureus): 3.12 µg/mL (≈ 11.4 µM)
IC50 (Staphylococcus aureus; Staphylococcus aureus): 1.92 µg/mL (≈ 7.02 µM)
IC50 (Candida albicans): 5.3 µg/mL (≈ 19.4 µM)
MIC (Candida albicans): 6.25 µg/mL (≈ 22.9 µM)
IC50 (Trichophyton benhamiae): 0.9 µg/mL (≈ 3.29 µM)
MIC (Trichophyton benhamiae): 1.56 µg/mL (≈ 5.71 µM)
IC50 (Candida parapsilosis): 10.4 µg/mL (≈ 38 µM)
MIC (Candida parapsilosis): 12.5 µg/mL (≈ 45.7 µM)
IC50 (Sporothrix schenckii): 2.84 µg/mL (≈ 10.4 µM)
MIC (Sporothrix schenckii): 3.12 µg/mL (≈ 11.4 µM)
IC50 (Aspergillus fumigatus): 3.98 µg/mL (≈ 14.6 µM)
MIC (Aspergillus fumigatus): 6.25 µg/mL (≈ 22.9 µM)
